From patent EP4721732A1, “PHARMACEUTICAL COMPOSITION CONTAINING CRISDESALAZINE WITH IMPROVED STABILITY AND DISSOLUTION RATE” (priority 2023, dated 2024)
Converted amounts (≈) assume the structure as drawn. Like-named read-outs stand apart in the source and are kept apart here.

Tests used:
[1] = pH-dependent equilibrium solubility; type: physicochemical; conditions: for Equilibrium Solubility: BLOD = below limit of detection; for solubility thermodynamic at 12 h / solubility thermodynamic at 24 h: purified water, thermodynamic from solid
Description: First, the inventors of the present invention measured the pH-dependent equilibrium solubility of crisdesalazine (2-hydroxy-5-[2-(4-trifluoromethylphenyl)ethylamino]benzoic acid), and the results of the solubility at 12 hours and 24 hours were as shown in Table 1 and Figure 1 below. […]

[2] = Compatibility evaluation of crisdesalazine with excipients; type: physicochemical
From the text: One embodiment of the present invention provides a pharmaceutical composition substantially free of lactose. The inventors conducted "compatibility" evaluation experiments between crisdesalazine and various excipients.
In other words, the long-term stability of crisdesalazine and lactose was difficult to predict based solely on short-term compatibility evaluation tests.
However, when compressed to a target hardness of 7-9 kPa, the target hardness was not achieved. The appearance of the tablet changed to a bluish gray color during the short period between mixing and compression.

## O=C(O)c1cc(NCCc2ccc(C(F)(F)F)cc2)ccc1O [crisdesalazine, 2-hydroxy-5-[2-(4-trifluoromethylphenyl)ethylamino]benzoic acid]
[1]; pH 3, 12 hours
  Equilibrium Solubility: BLOD
[1]; pH 3, 24 hours
  Equilibrium Solubility: BLOD
[1]; pH 4, 12 hours
  Equilibrium Solubility: BLOD
[1]; pH 1, simulated gastric fluid, pH 1, 12 hours, read-out: Equilibrium Solubility
  solubility thermodynamic at 12 h: 16.4 µg/mL (≈ 50.4 µM)
[1]; pH 1, simulated gastric fluid, pH 1, 24 hours, read-out: Equilibrium Solubility
  solubility thermodynamic at 24 h: 15.7 µg/mL (≈ 48.3 µM)
[1]; pH 2, simulated gastric fluid, pH 2, 12 hours, read-out: Equilibrium Solubility
  solubility thermodynamic at 12 h: 2.6 µg/mL (≈ 7.99 µM)
[1]; pH 2, simulated gastric fluid, pH 2, 24 hours, read-out: Equilibrium Solubility
  solubility thermodynamic at 24 h: 1.7 µg/mL (≈ 5.23 µM)
[1]; pH 4, aqueous buffer, pH 4, 24 hours, read-out: Equilibrium Solubility
  solubility thermodynamic at 24 h: 2.2 µg/mL (≈ 6.76 µM)
[1]; pH 5, aqueous buffer, pH 5, 12 hours, read-out: Equilibrium Solubility
  solubility thermodynamic at 12 h: 0.7 µg/mL (≈ 2.15 µM)
[1]; pH 5, aqueous buffer, pH 5, 24 hours, read-out: Equilibrium Solubility
  solubility thermodynamic at 24 h: 5.9 µg/mL (≈ 18.1 µM)
[1]; pH 6, aqueous buffer, pH 6, 12 hours, read-out: Equilibrium Solubility
  solubility thermodynamic at 12 h: 6.4 µg/mL (≈ 19.7 µM)
[1]; pH 6, aqueous buffer, pH 6, 24 hours, read-out: Equilibrium Solubility
  solubility thermodynamic at 24 h: 11.5 µg/mL (≈ 35.4 µM)
[1]; pH 7, aqueous buffer, pH 7, 12 hours, read-out: Equilibrium Solubility
  solubility thermodynamic at 12 h: 38.2 µg/mL (≈ 117 µM)
[1]; pH 7, aqueous buffer, pH 7, 24 hours, read-out: Equilibrium Solubility
  solubility thermodynamic at 24 h: 39.7 µg/mL (≈ 122 µM)
[1]; pH 7, aqueous buffer, pH 7 or lower, 12 hours, read-out: equilibrium solubility in purified water
  solubility thermodynamic at 12 h: ≤ 38.2 µg/mL
[1]; pH 7, aqueous buffer, pH 7 or lower, 24 hours, read-out: equilibrium solubility in purified water
  solubility thermodynamic at 24 h: ≤ 39.7 µg/mL
[1]; pH 8, aqueous buffer, pH 8, 12 hours, read-out: Equilibrium Solubility
  solubility thermodynamic at 12 h: 254 µg/mL (≈ 781 µM)
[1]; pH 8, aqueous buffer, pH 8, 24 hours, read-out: Equilibrium Solubility
  solubility thermodynamic at 24 h: 252 µg/mL (≈ 773 µM)
[1]; pH 9, aqueous buffer, pH 9, 12 hours, read-out: Equilibrium Solubility
  solubility thermodynamic at 12 h: 1210 µg/mL (≈ 3720 µM)
[1]; pH 9, aqueous buffer, pH 9, 24 hours, read-out: Equilibrium Solubility
  solubility thermodynamic at 24 h: 1230 µg/mL (≈ 3780 µM)
[1]; pH 10, aqueous buffer, pH 10, 12 hours, read-out: Equilibrium Solubility
  solubility thermodynamic at 12 h: 685 µg/mL (≈ 2110 µM)
[1]; pH 10, aqueous buffer, pH 10, 24 hours, read-out: Equilibrium Solubility
  solubility thermodynamic at 24 h: 678 µg/mL (≈ 2080 µM)
[1]; pH 11, aqueous buffer, pH 11, 12 hours, read-out: Equilibrium Solubility
  solubility thermodynamic at 12 h: 662 µg/mL (≈ 2040 µM)
[1]; pH 11, aqueous buffer, pH 11, 24 hours, read-out: Equilibrium Solubility
  solubility thermodynamic at 24 h: 718 µg/mL (≈ 2210 µM)
[1]; pH 12, aqueous buffer, pH 12, 12 hours, read-out: Equilibrium Solubility
  solubility thermodynamic at 12 h: 1220 µg/mL (≈ 3770 µM)
[1]; pH 12, aqueous buffer, pH 12, 24 hours, read-out: Equilibrium Solubility
  solubility thermodynamic at 24 h: 1220 µg/mL (≈ 3760 µM)
[2]; 13-week compatibility study, only minor powder coagulation, minimal changes in impurities
  compatibility with lactose: judged to be compatible
[2]; with calcium phosphate dibasic, hydroxypropyl methylcellulose (HPMC), meglumine, magnesium oxide (MgO)
  compatibility with excipients: poor compatibility
